Target: mNdK (nucleoside diphosphate kinase) (Mycobacterium tuberculosis, UniProt P9WJH7)
Assay: FRET molecular beacon nuclease assay with FP1T, Lineweaver-Burk analysis
Assay type: biochemical

Chain of mNdK (nucleoside diphosphate kinase) (P9WJH7 whole entry): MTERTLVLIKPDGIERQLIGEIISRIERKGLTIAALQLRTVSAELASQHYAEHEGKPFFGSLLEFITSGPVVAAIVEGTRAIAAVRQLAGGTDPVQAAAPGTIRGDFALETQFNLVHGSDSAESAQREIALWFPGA

Q: With `Nc1nc2c(ncn2[C@@H]2O[C@H](COP(=O)(O)OP(=O)(O)O)[C@@H](O)[C@H]2O)c(=O)[nH]1` [GDP] as the compound, how does the Ki read?
A: ~1900 µM

Source: publication PMC1097768 (Nucleic Acids Research, 2005)
